Experimental data published in article PMC6934184, “Selective DNA-PKcs inhibition extends the therapeutic index of localized radiotherapy and chemotherapy” (The Journal of Clinical Investigation, 2019).

Molecular target: T1, FLT3 D835Y (Homo sapiens, UniProt P36888, D835Y)
T1 construct: purchased Thermo Fisher Scientific (Life Technologies) SelectScreen
Test: SelectScreen Z'LYTE
Assay type: biochemical
Procedure, shortened: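 SelectScreen broad panel; activity (Z'LYTE, Adapta) plus binding formats. ATP: Km app for CSF1R Z'LYTE; 10 for CAMK1 Adapta. Readout = % per kinase.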

## CN(C(=O)CN1CCOCC1)c1ccc2sc3c(-c4cccc5c(=O)cc(N6CC7CCC(C6)O7)oc45)cccc3c2c1 [NU5455]
  inhibition at 1 µM: -3.9%
